Measured values from patent US20220105170A1 (priority 2019, published 2022).

System: peripheral blood lymphocytes collected from swine exposed to ASFV
Type: cell-based

Substance | Number of Spots
2134 (KNYFRFFKK) [compound 2134] | 16
2137 (KNYFRFFKKL) [compound 2137] | 12
2139 (NYFRFFKKLL) [compound 2139] | 19
2140 (YFRFFKKLL) [compound 2140] | 16
2141 (RFFKKLLTHF) [compound 2141] | 12
2142 (RFFKKLLTH) [compound 2142] | 12
2146 (KLLTHFNIYR) [compound 2146] | 16
2159 (RIHTRFGQYY) [compound 2159] | 15
2166 (KIDDFIRLY) [compound 2166] | 13
2171 (FIRLYPHIFY) [compound 2171] | 18
2175 (RLYPHIFYR) [compound 2175] | 16
2181 (YPHIFYRPLY) [compound 2181] | 12
2183 (PHIFYRPLYR) [compound 2183] | 15
2185 (HIFYRPLYRY) [compound 2185] | 15
2193 (ALNRHITTY) [compound 2193] | 12
2194 (RSCDYAPGFY) [compound 2194] | 12
2197 (KVRNKAIELY) [compound 2197] | 17
2205 (SVEELLSAV) [compound 2205] | 13
2211 (ASFKEGLSL) [compound 2211] | 12
2213 (KTSSNIILY) [compound 2213] | 12
2222 (ISFSEMLTRYW) [compound 2222] | 12
2223 (SFSEMLTRY) [compound 2223] | 12
2225 (SFSEMLTRYW) [compound 2225] | 12
2241 (YNLTEAIQYF) [compound 2241] | 14
2242 (YNLTEAIQY) [compound 2242] | 12
2251 (AIQYFYQRY) [compound 2251] | 12
2252 (AIQYFYQRYR) [compound 2252] | 13
2265 (RYRHFKDWRLI) [compound 2265] | 13
2266 (YRHFKDWRL) [compound 2266] | 14
VLIEFLTGFF [SEQ ID NO. 554] | 16
